Reference: US10058559B2, “Treatment or prevention of an intestinal disease or disorder” (The United States of America, as represented by the …, priority 2014, dated 2018)
Where two headings read alike, the source gives them in different places.

Experiments:
[1] = test system: panel of 136 other kinases; conditions: cited from earlier work
[2] = cited from earlier work
LRRK2 phosphorylation = conditions: mice, 30 mg/kg to 50 mg/kg i.p., in vivo; cited from earlier work
[3] = in vivo; cited from earlier work
187 kinases = conditions: cited from earlier work
BMDC from LRRK2 Tg mice [4] = assay: ZymD-induced cytokine production in BMDC from LRRK2 Tg mice; type: cell-based; conditions: for ZymD-induced cytokine production: FIG. 5a and 5b
Description: Since several of the candidate susceptibility genes in IBD (e.g., NOD2 and […]) are likely to be causing disease via an abnormal innate immune response, it was reasoned that increased LRRK2 expression was leading to an enhanced inflammatory response initiated by a Pathogen Associated Molecular Patterns (PAMPs) in the gastrointestinal environment.
Furthermore, in rat microglia, LRRK2 inhibitors block TLR4-induced TNF-a and iNOS production. Based on these findings, whether LRRK2 inhibition can serve as a therapeutic target in IBD was investigated. First, ZymD-induced cytokine production in BMDC from LRRK2 Tg mice in the presence or absence of two LRRK2 inhibitors, LRRK2-IN-1 and CZC54252.

LRRK2 kinase = LRRK2 kinase (Homo sapiens, UniProt Q5S007); conditions: previously reported; cited from earlier work
[5] = test system: panel of 460 other kinases; conditions: cited from earlier work
[6] = test system: LRRK2 Ser910 and Ser935 phosphorylation; conditions: in vitro; cited from earlier work
[7] = test system: LRRK2 Ser910 and Ser935 phosphorylation; conditions: in peripheral tissues in vivo; cited from earlier work
[8] = test system: human BMDC derived from Crohn's disease peripheral blood; assay: ZymD-induced TNF-alpha production in human BMDC derived from Crohn's disease peripheral blood; type: cell-based; conditions: human cells
BMDC from LRRK2 Tg mice [9] = assay: autophagy (Western blotting, LC3 puncta) in M. leprae- and ZymD-stimulated BMDC from LRRK2 Tg mice; type: cell-based
DSS-colitis = assay: DSS (dextran-sulfate)-colitis in mice; type: in vivo
Description: In initial studies to evaluate global LRRK2 function in bowel inflammation, LRRK2-Tg mice (as well as LRRK2 KO mice) were subjected to DSS (dextran-sulfate)-colitis. […] In contrast, DSS-colitis in LRRK2 KO mice was slightly less severe than in control mice (FIG. 2a and FIG. 2b). This latter result differs from that reported by Liu et al. who found increased severity of DSS colitis in LRRK2 KO mice. This discrepancy is likely due to differences in the control mice used in the two studies: the experiments described herein used control mice that had been back-crossed for 9 generations, were housed in the same facility and exposed to the same microbiota. These studies of DSS-colitis thus indicate that increased expression of LRRK2 leads to an increased inflammatory response in experimental colitis.

[10] = ZymD-induced, BMDC from LRRK2 Tg mice

Chain of LRRK2 kinase (Q5S007 whole entry, species assumed): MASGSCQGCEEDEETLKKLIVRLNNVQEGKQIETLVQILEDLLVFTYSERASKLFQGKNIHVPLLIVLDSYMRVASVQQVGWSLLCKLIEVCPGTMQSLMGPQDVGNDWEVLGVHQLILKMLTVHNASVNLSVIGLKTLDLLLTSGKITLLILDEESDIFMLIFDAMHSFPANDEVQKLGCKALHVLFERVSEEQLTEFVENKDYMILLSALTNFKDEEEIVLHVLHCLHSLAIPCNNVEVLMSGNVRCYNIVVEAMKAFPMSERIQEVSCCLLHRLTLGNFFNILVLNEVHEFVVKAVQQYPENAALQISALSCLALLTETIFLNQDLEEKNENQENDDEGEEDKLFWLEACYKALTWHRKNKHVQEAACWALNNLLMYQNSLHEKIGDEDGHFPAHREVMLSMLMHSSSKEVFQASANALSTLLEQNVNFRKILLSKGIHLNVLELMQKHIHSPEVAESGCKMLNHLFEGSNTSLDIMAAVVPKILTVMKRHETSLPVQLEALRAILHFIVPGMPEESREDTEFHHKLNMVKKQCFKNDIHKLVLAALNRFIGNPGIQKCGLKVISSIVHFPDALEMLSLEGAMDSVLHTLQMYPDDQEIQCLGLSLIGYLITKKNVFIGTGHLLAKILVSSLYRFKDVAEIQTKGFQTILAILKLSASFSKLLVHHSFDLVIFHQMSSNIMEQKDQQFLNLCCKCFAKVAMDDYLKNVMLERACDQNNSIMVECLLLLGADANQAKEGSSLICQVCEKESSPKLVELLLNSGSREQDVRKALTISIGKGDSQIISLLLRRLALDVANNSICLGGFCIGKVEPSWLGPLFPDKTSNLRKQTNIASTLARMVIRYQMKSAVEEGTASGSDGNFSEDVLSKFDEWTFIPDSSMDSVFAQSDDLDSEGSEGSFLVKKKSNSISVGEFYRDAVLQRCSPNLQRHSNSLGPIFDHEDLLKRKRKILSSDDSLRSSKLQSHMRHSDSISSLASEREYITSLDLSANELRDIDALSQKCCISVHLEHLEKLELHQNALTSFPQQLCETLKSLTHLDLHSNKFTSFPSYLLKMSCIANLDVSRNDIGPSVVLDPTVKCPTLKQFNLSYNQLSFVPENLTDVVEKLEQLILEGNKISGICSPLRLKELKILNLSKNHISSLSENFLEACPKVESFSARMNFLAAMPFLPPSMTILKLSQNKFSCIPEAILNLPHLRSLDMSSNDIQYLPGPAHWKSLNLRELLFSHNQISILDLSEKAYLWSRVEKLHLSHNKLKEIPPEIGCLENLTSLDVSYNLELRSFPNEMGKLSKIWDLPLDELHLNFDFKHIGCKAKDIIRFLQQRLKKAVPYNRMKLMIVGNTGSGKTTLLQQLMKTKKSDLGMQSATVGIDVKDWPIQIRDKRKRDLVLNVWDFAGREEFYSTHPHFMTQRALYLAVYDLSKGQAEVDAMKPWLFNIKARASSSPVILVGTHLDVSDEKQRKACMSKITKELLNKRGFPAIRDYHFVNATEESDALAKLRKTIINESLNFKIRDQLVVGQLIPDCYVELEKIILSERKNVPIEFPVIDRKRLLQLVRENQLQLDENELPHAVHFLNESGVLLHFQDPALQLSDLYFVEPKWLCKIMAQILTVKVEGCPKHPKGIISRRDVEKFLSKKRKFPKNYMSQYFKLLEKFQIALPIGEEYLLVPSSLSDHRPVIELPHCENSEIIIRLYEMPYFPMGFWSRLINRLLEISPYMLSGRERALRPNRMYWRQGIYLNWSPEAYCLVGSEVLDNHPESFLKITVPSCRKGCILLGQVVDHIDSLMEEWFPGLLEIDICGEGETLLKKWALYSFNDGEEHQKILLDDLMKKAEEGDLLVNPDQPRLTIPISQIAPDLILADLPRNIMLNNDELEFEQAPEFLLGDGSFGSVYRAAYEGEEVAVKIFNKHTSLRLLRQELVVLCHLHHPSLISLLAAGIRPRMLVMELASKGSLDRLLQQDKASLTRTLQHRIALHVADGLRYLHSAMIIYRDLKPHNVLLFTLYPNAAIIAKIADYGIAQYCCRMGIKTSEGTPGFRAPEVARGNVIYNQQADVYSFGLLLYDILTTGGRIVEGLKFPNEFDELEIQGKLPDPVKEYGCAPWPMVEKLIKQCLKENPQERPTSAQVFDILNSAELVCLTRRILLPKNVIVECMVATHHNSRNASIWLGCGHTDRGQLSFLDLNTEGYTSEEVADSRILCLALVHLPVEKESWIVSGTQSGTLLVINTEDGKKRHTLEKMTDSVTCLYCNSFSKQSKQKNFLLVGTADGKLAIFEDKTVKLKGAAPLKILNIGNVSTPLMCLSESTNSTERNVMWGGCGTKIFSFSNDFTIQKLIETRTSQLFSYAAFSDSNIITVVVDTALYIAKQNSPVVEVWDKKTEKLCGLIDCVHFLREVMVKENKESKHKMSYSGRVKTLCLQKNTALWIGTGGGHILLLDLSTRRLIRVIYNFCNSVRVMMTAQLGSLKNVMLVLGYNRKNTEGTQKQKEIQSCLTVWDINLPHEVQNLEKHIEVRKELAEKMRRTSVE

For `CNc1nc(Nc2ccc(C(=O)N3CCOCC3)cc2OC)ncc1Cl` [HG-10-102-01, (4-(5-Chloro-4-(methylamino)pyrimidin-2-ylamino)-3-methoxyphenyl)(morpholino)methanone], the “activity toward a panel of 136 other kinases” value [1] is listed as “little activity”, the cell permeability [2] is listed as “cell-permeable” and the “blood-brain-barrier crossing for LRRK2 phosphorylation inhibition” value (LRRK2 phosphorylation) is listed as “can cross the blood-brain-barrier”.
In the case of `CCNc1nc(Nc2cc(F)c(C(=O)N3CCOCC3)cc2OC)ncc1C(F)(F)F` [GNE-7915, (4-((4-(ethylamino)-5-(trifluoromethyl)pyrimidin-2-yl)amino)-2-fluoro-5-methoxyphenyl)(morpholino)methanone], the brain penetration [3] is listed as “brain-penetrant” and the “selectivity (kinases)” value (187 kinases) is listed as 1/187.
With “N-[-[[5-Chloro-2-[[2-methoxy-4-(4-morpholinyl)phenyl]amino]-4-pyrimidinyl]amino]phenyl]methanesulfonamide hydrochloride [CZC54252]” the “inhibition of TNF-alpha, dose dependence” value (BMDC from LRRK2 Tg mice [4]) was “dose dependent”, the ZymD-induced cytokine production (BMDC from LRRK2 Tg mice [4]; BMDC from LRRK2 Tg mice) was “greatly reduced” and the “production of pro-inflammatory cytokine mRNAs (TNF-alpha, TL1A, IL-23p19, IL-6 and IL-1beta mRNAs)” value (BMDC from LRRK2 Tg mice [4]; [10]) was “suppressed”.
For `O=C1Nc2ccccc2/C1=C1/Nc2ccccc2/C1=N\O` [Indirubin-3-monoxime], the “inhibitory activities of LRRK2 kinase” value (LRRK2 kinase) is listed as “inhibitory activities”.
In the case of `O=C(Nc1cccnc1)c1cc(-c2ccnc(F)c2)ccc1OCc1ccccc1` [GSK2578215A, 5-(2-Fluoro-4-pyridinyl)-2-(phenylmethoxy)-N-3-pyridinylbenzamide], the “selectivity for LRRK2 against a panel of 460 other kinases” value [5] is given as “displays selectivity for LRRK2”, the “Ser910 and Ser935 phosphorylation” value [6] is given as “blocks” and the “Ser910 and Ser935 phosphorylation” value [7] is given as “blocks”. The brain penetration [3] was “brain penetrant”.
For `O=C1Nc2ccc(I)cc2/C1=C/c1cc(Br)c(O)c(Br)c1` [GW5074], the “inhibitory activities of LRRK2 kinase” value (LRRK2 kinase) is given as “inhibitory activities”.
With `COc1cc(C(=O)N2CCC(N3CCN(C)CC3)CC2)ccc1Nc1ncc2c(n1)N(C)c1ccccc1C(=O)N2C` [LRRK2-IN-1, 5,11-Dihydro-2-[[2-methoxy-4-[[4-(4-methyl-1-piperazinyl)-1-piperidinyl]carbonyl]phenyl]amino]-5,11-dimethyl-6H-pyrimido[4,5-b][1,4]benzodiazepin-6-one] the ZymD-induced cytokine production (BMDC from LRRK2 Tg mice [4]; BMDC from LRRK2 Tg mice) was “greatly reduced”, the “inhibition of TNF-alpha, dose dependence” value (BMDC from LRRK2 Tg mice [4]; [10]) was “dose dependent” and the “production of pro-inflammatory cytokine mRNAs (TNF-alpha, TL1A, IL-23p19, IL-6 and IL-1beta mRNAs)” value (BMDC from LRRK2 Tg mice [4]; [10]) was “suppressed”. The “concentration required to suppress cytokine production” value [8] was 5 µM, the “autophagy (Western blotting and quantitation of LC3 puncta)” value (BMDC from LRRK2 Tg mice [9]) was “reversed inhibition of autophagy” and the DSS-colitis severity (DSS-colitis; LRRK2-Tg mice) was “amelioration”. The DSS-colitis severity (DSS-colitis; wild-type mice (so in the source)) was “ameliorate”.
For `O=S(=O)(NCCNC/C=C/c1ccc(Br)cc1)c1cccc2cnccc12` [H-89], the “inhibitory activities of LRRK2 kinase” value (LRRK2 kinase) is given as “inhibitory activities”.
For `COc1cc(N2CCC(N3CCN(C)CC3)CC2)ccc1Nc1ncc(Cl)c(Nc2ccccc2S(=O)(=O)C(C)C)n1` [TAE684], the “inhibitory activities of LRRK2 kinase” value (LRRK2 kinase) is given as “inhibitory activities”.
